Where two headings read alike, the source gives them in different places.
Target: human DPP-IV (Homo sapiens, UniProt P27487)
Assay: DPP-IV activity assay (fluorometric / colorimetric), IC50 determination
Protocol: Activity of DPP-IV inhibitors are tested with natural human DPP-IV derived from a human plasma pool or with recombinant human DPP-IV. Human citrate plasma from different donors is pooled, filtered through a 0.2 micron membrane under sterile conditions, and aliquots of 1 ml are shock frozen and stored at −120° C. until used. In the calorimetric DPP-IV assay 5 to 10 μl human plasma, and in the fluorometric assay 1.0 μl of human plasma in a total assay volume of 100 μl is used as an enzyme source. […] Human DPP-IV is expressed and purified from the culture medium using conventional column chromatography including size exclusion and anion and cation chromatography. […] In the calorimetric DPP-IV assay 20 ng rec.-h DPP-IV and in the fluorometric assay 2 ng rec-h DPP-IV in a total assay volume of 100 μl is used as an enzyme source.
Initial rate constants are calculated by best fit linear regression.
DPP-IV activity assays are performed in 96 well plates at 37° C. in a total assay volume of 100 μl. The assay buffer consists of 50 mM Tris/HCl pH 7.8 containing 0.1 mg/ml BSA and 100 mM NaCl. Test compounds are solved in 100% DMSO, diluted to the desired concentration in 10% DMSO/H2O. The final DMSO concentration in the assay is 1% (v/v). At this concentration enzyme inactivation by DMSO is <5%. Compounds are with (10 minutes at 37° C.) and without preincubation with the enzyme. Enzyme reactions are started with substrate application followed by immediate mixing.
Kinetic parameters of the enzyme reaction are calculated at least 5 different substrate concentrations and at least 5 different test compound concentrations.

Sequence of human DPP-IV (P27487 31-766): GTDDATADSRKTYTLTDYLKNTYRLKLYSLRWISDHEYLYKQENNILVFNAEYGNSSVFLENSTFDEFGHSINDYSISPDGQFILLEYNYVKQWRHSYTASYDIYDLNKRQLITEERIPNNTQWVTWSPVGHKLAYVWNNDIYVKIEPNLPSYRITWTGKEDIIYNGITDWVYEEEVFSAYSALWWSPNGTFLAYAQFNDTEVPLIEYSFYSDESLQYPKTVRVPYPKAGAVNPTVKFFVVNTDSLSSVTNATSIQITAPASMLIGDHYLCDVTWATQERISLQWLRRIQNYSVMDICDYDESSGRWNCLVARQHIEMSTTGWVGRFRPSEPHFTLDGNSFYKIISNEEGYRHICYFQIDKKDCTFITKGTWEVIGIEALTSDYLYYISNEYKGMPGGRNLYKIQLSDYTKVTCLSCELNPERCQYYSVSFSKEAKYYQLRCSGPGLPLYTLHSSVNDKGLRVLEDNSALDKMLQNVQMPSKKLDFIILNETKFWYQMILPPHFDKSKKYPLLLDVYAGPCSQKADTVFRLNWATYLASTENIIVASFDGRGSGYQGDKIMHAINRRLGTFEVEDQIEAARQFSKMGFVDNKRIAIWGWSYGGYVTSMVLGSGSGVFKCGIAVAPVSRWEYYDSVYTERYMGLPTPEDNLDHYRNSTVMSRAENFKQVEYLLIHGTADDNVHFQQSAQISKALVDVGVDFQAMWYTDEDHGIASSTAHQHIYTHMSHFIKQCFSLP

SMILES | IC50 | IC50 (natural human DPP-IV from human plasma pool or recombinant human DPP-IV, 37° C., pH 7.8)
Cc1ccc(-c2nc(-c3ccccc3)nc(N)c2CN)c(C)c1 [Example 11, 5-Aminomethyl-6-(2,4-dimethyl-phenyl)-2-phenyl-pyrimidin-4-ylamine] | 172 nM | 
CCc1ccc(-c2nc(-c3ccccc3)nc(N)c2CN)cc1 [Example 43, 5-Aminomethyl-6-(4-ethyl-phenyl)-2-phenyl-pyrimidin-4-ylamine] | 389 nM | 
CNCc1c(N)nc(-c2ccccc2)nc1-c1ccc(Cl)cc1Cl [Example 76, 6-(2,4-Dichloro-phenyl)-5-methylaminomethyl-2-phenyl-pyrimidin-4-ylamine] | 391 nM | 
Cc1c(-c2ccccc2)nc(N)c(CN)c1-c1ccc(Cl)cc1Cl [Example 79, 3-Aminomethyl-4-(2,4-dichloro-phenyl)-5-methyl-6-phenyl-pyridin-2-ylamine] | 873 nM | 

More lines, now with the values ahead:

IC50 | IC50 (natural human DPP-IV from human plasma pool or recombinant human DPP-IV, 37° C., pH 7.8) | SMILES
 | 0.2 nM | NCc1c(N)nc(-c2cccc(F)c2)nc1-c1ccc(Cl)cc1Cl [Example 13, 5-Aminomethyl-6-(2,4-dichloro-phenyl)-2-(3-fluoro-phenyl)-pyrimidin-4-ylamine]
0.7 nM |  | NCc1c(N)nc(-c2cc3ccccc3o2)nc1-c1ccc(Cl)cc1Cl [Example 16, 5-Aminomethyl-2-benzofuran-2-yl-6-(2,4-dichloro-phenyl)-pyrimidin-4-ylamine]
3 nM |  | NCc1c(N)nc(N2CCCCCC2)nc1-c1ccc(Cl)cc1Cl [Example 20, 5-Aminomethyl-2-azepan-1-yl-6-(2,4-dichloro-phenyl)-pyrimidin-4-ylamine]
13 nM |  | CSc1nc(N)c(CN)c(-c2ccc(Cl)cc2Cl)n1 [Example 23, 5-Aminomethyl-6-(2,4-dichloro-phenyl)-2-methylsulfanyl-pyrimidin-4-ylamine]
